Here are results for 14 compounds from patent US11090288B2, “Pyrazole derivatives and their uses thereof” (Canadian Blood Services, priority 2013, dated 2021).

The first test has as its system monocytes (phagocytosis of anti-D opsonized RBCs). Kind of test: Monocyte monolayer assay (MMA), phagocytosis of anti-D opsonized RBCs. The test is classed as cell-based. Conditions: Monocyte; percent inhibition of phagocytosis of anti-D opsonized RBCs by monocytes; compound at 5 micromolar. The method, then: Monocyte monolayer assay. The monocyte monolayer assay (MMA) was performed as previously described (Rampersad, G. C.; Suck, G; Sakac, D; Fahim, S; Foo, A; Denomme, G. A.; Langler, R. F.; Branch, D. R. Transfusion 2005, 45, 384; Foo, A. H.; Fletcher, S. P.; Langler, R. F.; Porter, C. H.; Branch, D. R. Transfusion 2007, 47, 290; Branch, D. R.; Gallagher, M. T.; Mison, A. P.; Sy Siok Hian, A. L.; Petz, L. D. Br. J. Haematol. 1984, 56, 19; Gallagher, M. T.; Branch, D. R.; Mison, A.; Petz, L. D. Exp. Hematol. 1983, 11, 82) in the above 4 references with slight modification. Briefly, peripheral blood mononuclear cells (PBMC) containing monocytes were isolated by ficoll-paque density gradient centrifugation and incubated overnight at 37° C. under 5% CO2 atmosphere. PBMCs were then layered onto chamber slides (Labtek, Thermo Scienctific) and incubated at 37° C., 5% CO2 for 1 hr to allow the monocytes to adhere. Following an aspiration of non-adherent cells, compounds were added at various concentrations to the adhered cells and further incubated for an additional hour. The compounds were aspirated and the monocytes treated with anti-D opsonized RBCs at the aforementioned incubation conditions for an additional 2 hrs. The slides were analyzed under phase microscopy for phagocytosis. A minimum of 100 monocytes were counted per sample and the number of observed RBCs that were phagocytosed were counted and normalized to a positive control to generate a phagocytosis index. Percent inhibition of phagocytosis was calculated as the percentage of control phagocytosis (phagocytosis of opsonized RBCs with compound diluent only).
As a reminder, the inhibition is the share of the control response that was lost under treatment. Low readings indicate a weak effect, high ones a strong effect. Consider `Cc1cc(Oc2c([N+](=O)[O-])c(C)nn2-c2ccccc2)n(-c2ccccc2)n1` [Compound 23, 3-Methyl-5-(3-methyl-1-phenyl-1H-pyrazol-5-yloxy)-4-nitro-1-phenyl-1H-pyrazole], for which the inhibition at 5 µM came to 12%.

`Cc1cc(CCc2cc(C)nn2-c2ccccc2)n(-c2ccccc2)n1` [Compound 14, 1,2-Bis(3-methyl-1-phenyl-1H-pyrazol-5-yl)ethane] displayed an inhibition at 5 µM of at most 16%.

The compound `Cc1cc(CNCc2cc(C)nn2-c2ccccc2)n(-c2ccccc2)n1` [Compound 18, Bis((3-methyl-1-phenyl-1H-pyrazol-5-yl)methyl)amine] came in with an inhibition at 5 µM of 20%.

In the case of `Cc1cc(OCC2CCCN2Cc2ccccc2)n(-c2ccccc2)n1` (stereo not shown) [Compound 53, 5-((1-Benzylpyrrolidin-2-yl)methoxy)-3-methyl-1-phenyl-1H-pyrazole], the inhibition at 5 µM fell in the range of 5 to 15%.

In turn, `Cc1cc(COc2cc(C)nn2C2CCCC2)n(-c2ccccc2)n1` [Compound 41, 1-Cyclopentyl-3-methyl-5-((3-methyl-1-phenyl-1H-pyrazol-5-yl)methoxy)-1H-pyrazole] registered an inhibition at 5 µM of at most 17%.

Compound `Cc1cc(OCc2cc(C)nn2-c2ccccc2)n(CC2CCCCC2)n1` [Compound 37, 1-(Cyclohexylmethyl)-3-methyl-5-((3-methyl-1-phenyl-1H-pyrazol-5-yl)methoxy)-1H-pyrazole] returned an inhibition at 5 µM of 33 to 45%.

As to `Cc1cc(O)n(Cc2cc(C)nn2-c2ccccc2)n1` [Compound 50, 3-methyl-1-((3-methyl-1-phenyl-1H-pyrazol-5-yl)methyl)-1H-pyrazol-5-ol], the inhibition at 5 µM was in the range of 27 to 58%.

`Cc1cc(Oc2c(N)c(C)nn2-c2ccccc2)n(-c2ccccc2)n1` [Compound 24, 3-Methyl-5-(3-methyl-1-phenyl-1H-pyrazol-5-yloxy)-1-phenyl-1H-pyrazol-4-amine] returned an inhibition at 5 µM of 2%.

With `Cc1cc(OCc2cc(C)nn2-c2ccccc2)n(CCN)n1` [Compound 47, 2-(3-Methyl-5-((3-methyl-1-phenyl-1H-pyrazol-5-yl)methoxy)-1H-pyrazol-1-yl)ethanamine], the inhibition at 5 µM was in the range of 5 to 33%.

On to `Cc1cc(OCCOc2cc(C)nn2-c2ccccc2)n(-c2ccccc2)n1` [Compound 20, 1,2-Bis(3-methyl-1-phenyl-1H-pyrazol-5-yloxy)ethane], for which the inhibition at 5 µM was 4 to 14%.

Turning to `Cc1cc(COc2cc(C)nn2-c2ccc([N+](=O)[O-])cc2)n(-c2ccccc2)n1` [Compound 28, 3-Methyl-5-({[3-methyl-1-(4-nitrophenyl)-1H-pyrazol-5-yl]oxy}methyl)-1-phenyl-1H-pyrazole], the inhibition at 5 µM fell in the range of 2 to 16%.

`Cc1cc(OCc2cc(C)nn2-c2ccccc2)n(CC(=O)O)n1` [Compound 48, 2-(3-Methyl-5-((3-methyl-1-phenyl-1H-pyrazol-5-yl)methoxy)-1H-pyrazol-1-yl)acetic acid] displayed an inhibition at 5 µM of 4 to 10%.

`Cc1cc(COc2cc(C)nn2-c2ccccc2)n(-c2ccccc2)n1` [Compound 15, 3-Methyl-5-((3-methyl-1-phenyl-1H-pyrazol-5-yl)methoxy)-1-phenyl-1H-pyrazole]: the inhibition at 5 µM was at most 14%.

Staying with this test, now noted: percent inhibition of phagocytosis of anti-D opsonized RBCs by monocytes; compound at 5 micromolar.
Turning to `Cc1cc(OCc2cc(C)nn2-c2ccccc2)[nH]n1` [Compound 49], the “Activity @ 5 micromolar (%)” value was 6-26%.

In another test the test system is preventive mouse model of ITP (anti-platelet antibody, rat anti-mouse CD41). Description: Preventive mouse model of ITP, compound given subcutaneously. Format: in vivo, Mice. To be noted: SC twice per day (2 sites, 2 mg/ml) starting at Day 0; anti-CD41 1.4 μg daily; FIG. 2. The method, then:
Mice were treated as above with an anti-platelet antibody (rat anti-mouse CD41 using 1.4 μg constant dose) daily starting at Day 0 to induce ITP. Compound 50 was given SC twice per day (2 sites, 2 mg/ml) starting at Day 0. IVIg (1 g/kg) was given on Day 2 for comparison as this is considered the therapeutic dose of IVIg. Treatment groups: n=5 mice per group; control (untreated): n=3. Statistical significance by one-way ANOVA with Dunnett posthoc test and is indicated: ** p<0.01; *** p<0.001.
With `Cc1cc(O)n(Cc2cc(C)nn2-c2ccccc2)n1` [Compound 50, 3-methyl-1-((3-methyl-1-phenyl-1H-pyrazol-5-yl)methyl)-1H-pyrazol-5-ol], the “Amelioration of ITP” value is listed as “efficacious for the amelioration of ITP”.

The test system is the same in the next test. Description: Preventive mouse model of ITP, compound given IP or IV. Format: in vivo, Mice (BALB/c). To be noted: i.p. (40 mg/kg) or i.v. (16 mg/kg); anti-CD41 1.4 μg daily from Day 0; FIG. 1. As to the method:
Mice (BALB/c) were treated with an anti-platelet antibody (rat anti-mouse CD41 using 1.4 μg constant dose) daily starting at Day 0 to induce ITP. Platelet counts at Day 2, when a nadir is reached in this model, are shown for untreated mice, mice treated with anti-CD41 only, mice treated with IVIG (1 g/kg) (positive control for ITP amelioration), and mice treated with Compound 50 i.p. (40 mg/kg) or i.v. (16 mg/kg). Treatment groups: n=5 mice per group; control: n=3. Statistical significance by one-way ANOVA with Dunnett posthoc test and is indicated: ** p<0.01; *** p<0.001.
For `Cc1cc(O)n(Cc2cc(C)nn2-c2ccccc2)n1` [Compound 50, 3-methyl-1-((3-methyl-1-phenyl-1H-pyrazol-5-yl)methyl)-1H-pyrazol-5-ol], the “Amelioration of ITP (platelet counts at Day 2)” value is recorded as “ameliorates ITP”.
